Data from US5486604A, “Cyclic ADP ribose antagonists” (Regents of the University of Minnesota, priority 1993, dated 1996).

Tests used:
[1] = tested on: cADPR-sensitive Ca^+2 release; test: cADPR-induced Ca2+ release from L. pictus egg homogenates, Fluo 3; type: biochemical, Lytechinus pictus
cADPR-sensitive release = conditions: pharmacological blockers of CICR; cited from earlier work
[2] = tested on: caffeine induced Ca^+2 release; test: Caffeine induced Ca2+ release and its potentiation by cADPR, S. purpuratus homogenates; type: biochemical, Strongylocentrotus purpuratus
Method: FIG. 7 Inhibition of the potentiating effect of cADPR on caffeine induced Ca^+2 release. Ca^+2 release from S. purpuratus homogenates (1.25%) was measured using Fluo 3 as Ca^+2 indicator. (a) In the absence of cADPR, addition of 1 mM caffeine induced no Ca^+2 release (curve labeled 0). The presence of 20 nM cADPR (arrow labeled cADPR) greatly potentiated the Ca^+2 releasing activity of 1 mM caffeine (curve labeled 20).
(§1) Homogenates from Strongylocentrotus purpuratus eggs were prepared as previously described (Lee, H. C. (1991) J. Biol. Chem. 266, 2276-2281, Lee, H. C. (1993) J. Biol. Chem. 268, 293-299). Briefly, eggs were washed once in artificial sea water, twice in Ca^+2 -free sea water containing 1 mM EGTA, twice in Ca^+2 -free sea water without EGTA, once with the homogenization buffer (GluIAG MPM) containing 250 mM N-methylglucamine, 250 mM potassium gluconate, 20 mM HEPES, and 1 mM MgCl2; pH titrated to 7.2 with acetic acid and resuspended with the same medium to 25% (v/v). The following additions were made: 10 μg/ml of leupeptin, 10 μg/ml of aprotinin, 50 μg/ml of soybean trypsin inhibitor, 2 units/ml of creatine kinase, 4 mM phosphocreatine and 0.5 mM ATP. The suspension was chilled on ice for 10-15 min and transferred to a beaker inside a cell disruption bomb (Parr Instrument Co., Ill.). The suspension was mixed continuously with a magnetic stirring bar while nitrogen pressure of 80 psi was applied for 10-30 seconds. The sudden decompression of the suspension as it was released from the bomb effectively homogenized the eggs. The homogenates were centrifuged for 12-14 seconds (13,000×g, 4° C.) in a microfuge (Fisher) and the supernatant was collected and stored frozen at -70 ° C. until use.
(§2) Frozen egg homogenates prepared as described above were thawed in a 17° C. water bath for 20-30 min and then diluted to 5% with the homogenization medium (GLuIM) containing 2 units/ml of creatine kinase, 4 mM phosphocreatine and 0.5 mM ATP. After incubating at 17° C. for one hour the homogenates were diluted sequentially to 2.5% and finally to 1.25% with the same medium. Following each dilution, the homogenates were incubated at 17° C. for one hour. After the last dilution, fluo 3 was added to a final concentration of 3 μM. Fluorescence was measured at 490 nm excitation and 535 nm emission using a Hitachi spectrofluorimeter (F-2000). Fluo 3 fluorescence intensity is directly related to the Ca^+2 concentration (Dargie, P. J., Agre, M. C., and Lee, Hon. C. (1990) Cell Regulation 1,279-290). In some Figures the Fluo 3 fluorescence intensity was calibrated with the addition of known amounts of Ca^ +2. All assays were done in a curvette maintained at 17° C. with a circulating water bath and its content continuously mixed with a magnetic stirring bar. The volume of homogenate used for each assay was 0.2 ml.

[3] = tested on: cADPR-sensitive Ca^+2 release; test: cADPR-induced Ca2+ release from S. purpuratus egg homogenates, Fluo 3 as Ca2+ indicator; type: biochemical, Strongylocentrotus purpuratus
Method: FIG. 2 Inhibition of cADPR induced Ca^+2 release by 8-amino-cADPR Ca^+2 release from S. purpuratus homogenates (1.25%) was monitored using Fluo 3 as Ca^+2 indicator. (a) The effect of varying the concentration of cADPR on Ca^+2 release. (b) The inhibition of Ca^+2 release induced by 135 nM of cADPR by pre-treatment of the homogenates with 100 nM 8-amino-cADPR.
FIG. 3 Competitive inhibition of cADPR dependent Ca^+2 release by 8-amino-cADPR. Ca^+2 release from S. purpuratus homogenates (1.25%) induced by various concentrations of cADPR was measured in the presence and absence of 100 nM 8-amino-cADPR (8-amino-cADPR);
FIG. 5 Effectiveness of 8-amino-cADPR in blocking Ca^+2 release induced by cADPR. (a) Ca^+2 release from S. purpuratus homogenates (1.25%) induced by the addition of 95 nM cADPR was measured using Fluo 3 as Ca^+2 indicator. (b-d) After the Ca^+2 release had started, increasing amounts of 8-amino-cADPR (8-NH2) were added to give the final concentrations indicated in the Figure;
as §1, §2

cADPR binding site = test: Specific binding of [32P]cADPR to sea urchin egg microsomes (filtration assay); set-up: species or system Lytechinus pictus
Method: FIG. 4 Competitive inhibition of ^32 P-cADPR binding by 8-amino-cADPR and cADPR. Specific binding of ^32 P-cADPR to L. pictus microsomes was measured in the presence of various concentrations of cADPR (filled squares) and 8-amino-cADPR (open squares). Total binding in the presence of a high concentration of cADPR (1.2 μM) was taken as non-specific binding (55 cpm) and was subtracted from all the values;
Specific binding of [^32 P]cADPR to sea urchin egg microsomes was determined by a filtration assay as described previously (Lee, H. C. (1991) J. Biol. Chem. 266, 2276-2281) with some modifications. L. pictus egg homogenates (1 ml) were dialyzed overnight against 1 liter of the homogenization buffer (GluIM listed above). After dialysis, the homogenates were centrifuged for 30 min in a microfuge and the supernatant containing microsomes was collected and diluted 20 fold with GluIM. About 40,000 cpm of [^32 P]cADPR (400 Ci/mmol) and various concentrations of either cADPR or 8-substituted analogs were incubated with the 20 fold diluted microsomes for 10 min at 4° C. in a volume of 0.1 ml. […] The filters were then washed with 4 ml of 10 % polyethylene glycol and the radioactivity on the filters was determined by liquid scintillation counting. […] The specific binding was determined as the total binding minus the binding in the presence of 1.2 μM of unlabeled cADPR. […]

[4] = tested on: specific microsomal binding site for cADPR; conditions: cited from earlier work
[5] = tested on: Ca^+2 induced Ca^+2 release; test: cADPR potentiation of divalent cation (Ca2+, Sr2+) induced Ca2+ release, S. purpuratus homogenates; type: biochemical, Strongylocentrotus purpuratus
Method: FIG. 6 Inhibition of the potentiating effect of cADPR on Ca^+2 release induced by divalent cations. […] release from S. purpuratus homogenates (1.25% ) was measured using Fluo 3 as Ca^+2 indicator. (a) Ca^+2 release was induced by 75 nM cADPR in the absence of 8-amino-cADPR (-8-NH2). Prior addition of 50 nM 8-amino-cADPR (+8 NH2) prohibited cADPR (75 nM) from releasing Ca^+2. (b) In the presence of 30 nM cADPR, addition of 0.4 nmol of Ca^+2 (arrow labeled Ca) induced further Ca^+2 release (-8-NH2). Prior addition of 50 nM 8-amino-cADPR blocked cADPR from potentiating the Ca^+2 induced Ca^+2 release (+8-NH2). (c) In the presence of 30 nM cADPR, addition of 2 nmol of Sr^+2 (arrow labeled Sr) induced further Ca^ +2 release (-8-NH2). […]
(§3) Frozen egg homogenates prepared as described above were thawed in a 17° C. water bath for 20-30 min and then diluted to 5% with the homogenization medium (GLuIM) containing 2 units/ml of creatine kinase, 4 mM phosphocreatine and 0.5 mM ATP. […] Fluorescence was measured at 490 nm excitation and 535 nm emission using a Hitachi spectrofluorimeter (F-2000). Fluo 3 fluorescence intensity is directly related to the Ca^+2 concentration (Dargie, P. J., Agre, M. C., and Lee, Hon. C. (1990) Cell Regulation 1,279-290). In some Figures the Fluo 3 fluorescence intensity was calibrated with the addition of known amounts of Ca^ +2. […]

[6] = tested on: Ca^+2 release induced by ryanodine; test: Ryanodine induced Ca2+ release, S. purpuratus homogenates; type: biochemical, Strongylocentrotus purpuratus
Method: FIG. 8 Inability of 8-amino-cADPR to block Ca^+2 release induced by ryanodine. Ca^+2 release from S. purpuratus homogenates (1.25%) was measured using Fluo 3 as Ca^+2 indicator. Ryanodine and 8-amino-cADPR(8-NH2) were added to the final concentrations as indicated;
as §1, with “The homogenates were centrifuged for 12-14 seconds (13,000×g, 4° C.) in a microfuge (Fisher) and the supernatant was collected and stored frozen at -70 ° C. until use.” left out
as §3

## [N-]=[N+]=Nc1nc2c(=N)n3cnc2n1[C@@H]1O[C@H](COP(=O)(O)OP(=O)(O)OC[C@H]2O[C@@H]3[C@H](O)[C@@H]2O)[C@@H](O)[C@H]1O [8-azido-cADPR]
[1]; data not shown
  antagonist potency rank: between that of 8-amino-cADPR and 8-Br-cADPR

## N.N.N.N.N.N.N.N.N.N.N.N.N.N.[Cl-].[Cl-].[Cl-].[Cl-].[Cl-].[Cl-].[O-2].[O-2].[Ru+3].[Ru+3].[Ru+4] [ruthenium red]
cADPR-sensitive release
  effect on the cADPR-sensitive release: specifically inhibit

## N=c1c2ncn3c2ncn1[C@@H]1O[C@H](COP(=O)(O)OP(=O)(O)OC[C@H]2O[C@@H]3[C@H](O)[C@@H]2O)[C@@H](O)[C@H]1O [cADPR, Cyclic ADP-ribose, reference compound]
[2]; 20 nM cADPR, not sufficient to release Ca^+2 by itself
  potentiation of caffeine (1 mM) induced Ca^+2 release: greatly increased the caffeine sensitivity
[3]; in the absence of the analog, read-out: half-maximal concentration for Ca^+2 release
  EC50: ~90 nM
cADPR binding site; dialyzed L. pictus homogenates, 0-5 C, no ATP, read-out: apparent affinity constant derived from the binding data
  Kd: ~1 nM

## CCN(CC)CCOC(=O)c1ccc(N)cc1 [procaine]
cADPR-sensitive release
  effect on the cADPR-sensitive release: specifically inhibit

## inositol trisphosphate
[4]
  competition for the specific microsomal binding site for cADPR, relative to cADPR: at least a thousand times less effectively than cADPR

## N=c1c2nc(N)n3c2ncn1[C@@H]1O[C@H](COP(=O)(O)OP(=O)(O)OC[C@H]2O[C@@H]3[C@H](O)[C@@H]2O)[C@@H](O)[C@H]1O [8-amino-cADPR]
[2]; 100 nM antagonist, 2.5 mM caffeine, data not shown
  block of Ca^+2 release induced by a high concentration of caffeine: did not block
[2]; prior addition of 10 nM antagonist
  inhibition of cADPR (20 nM) potentiation of caffeine (1 mM) induced Ca^+2 release: substantial inhibition
[2]; prior addition of 100 nM antagonist
  inhibition of cADPR (20 nM) potentiation of caffeine (1 mM) induced Ca^+2 release: completely blocked
[5]; 50 nM antagonist added before cADPR
  stimulated Ca^+2 release after 0.4 nmol Ca^+2 in the presence of 30 nM cADPR: absent
[5]; prior addition of 50 nM antagonist, 2 nmol Sr^+2
  stimulated Ca^+2 release after Sr^+2 in the presence of 30 nM cADPR: blocked
[3]; 100 nM 8-amino-cADPR present
  effect on the concentration-response curve of cADPR: shifted the concentration-response curve toward higher concentrations of cADPR
[3]; 135 nM cADPR, read-out: concentration of antagonist at which the rate of Ca^+2 release induced by cADPR was reduced by half
  IC50: ~9 nM
[3]; 150 nM analog added before 135 nM cADPR
  block of Ca^+2 release induced by cADPR: virtually complete
[3]; 150 nM final concentration, egg homogenates 1.25%
  Ca^+2 release caused by the analog itself: did not cause any
[3]; inhibition overcome by increasing cADPR
  kind of antagonism of cADPR: reversible antagonist
[3]; prior addition of 50 nM antagonist
  block of Ca^+2 release induced by 75 nM cADPR: total blockage
[3]; release activated by 95 nM cADPR, 100 nM antagonist
  effect on ongoing Ca^+2 release when added after release had commenced: almost total cessation
[6]; 100 nM antagonist
  effect of antagonist on the Ca^+2 release activity of ryanodine: slightly stimulated
  inhibition of Ca^+2 release induced by ryanodine: did not inhibit
cADPR binding site; L. pictus egg microsomes, compared with unlabeled cADPR
  competition for the [32P]cADPR binding sites: as effective as cADPR itself

## ryanodine [reference compound]
[6]; ryanodine alone
  Ca^+2 release on addition to egg homogenates: concentration-dependent release

## Cn1c(=O)c2c(ncn2C)n(C)c1=O [caffeine, reference compound]
[2]; 1 mM caffeine, absence of cADPR
  Ca^+2 release by caffeine alone: did not produce any

## N=c1c2nc(Br)n3c2ncn1[C@@H]1O[C@H](COP(=O)(O)OP(=O)(O)OC[C@H]2O[C@@H]3[C@H](O)[C@@H]2O)[C@@H](O)[C@H]1O [8-Br-cADPR]
[1]; 40 nM cADPR
  concentrations required for antagonism, compared with 8-amino-cADPR: required micromolar concentrations
[1]; 1 to 3.5 uM, L. pictus homogenates 2.5%
  Ca^+2 release caused by the analog itself: did not release
[1]; prior addition of increasing concentrations, 1 to 3.5 uM
  blockage of Ca^+2 release induced by 40 nM cADPR: progressive blockage
